Measured values as given in article PMC4020581 (Biochemistry, 2014).

Biological target: T1, FtsZ (Bacillus subtilis, UniProt P17865)
T1 sequence (P17865 1-382): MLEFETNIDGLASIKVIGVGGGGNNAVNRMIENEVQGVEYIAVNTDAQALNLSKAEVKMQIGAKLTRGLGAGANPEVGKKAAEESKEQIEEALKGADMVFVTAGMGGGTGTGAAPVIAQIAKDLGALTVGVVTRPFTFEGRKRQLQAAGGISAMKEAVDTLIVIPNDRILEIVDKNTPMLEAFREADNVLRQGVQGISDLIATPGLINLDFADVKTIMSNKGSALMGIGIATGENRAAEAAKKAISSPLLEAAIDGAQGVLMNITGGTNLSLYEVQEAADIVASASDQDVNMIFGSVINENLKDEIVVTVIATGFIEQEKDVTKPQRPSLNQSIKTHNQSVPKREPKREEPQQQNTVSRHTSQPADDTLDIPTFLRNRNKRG
Experiment: malachite green/ammonium molybdate GTPase assay
Assay type: biochemical

malachite green/ammonium molybdate GTPase assay (1 mM GTP): 1.5 ± 0.6 min^–1
Structure (SMILES): Nc1nc2c(ncn2[C@@H]2O[C@H](COP(=O)(O)OP(=O)(O)OP(=O)(O)O)[C@@H](O)[C@H]2O)c(=O)[nH]1 [GTP]
